Publication PMC10709440, “High-throughput ligand profile characterization in novel cell lines expressing seven heterologous insect olfactory receptors for the detection of volatile plant biomarkers” (Scientific Reports, 2023)
Where “and” joins values, the source holds several entries; their conditions need not be identical. Equal entries are not always repeated.

Columns and labels:
Drosophila OR47a = target: T1, Drosophila OR47a (Drosophila melanogaster, UniProt P81921); assay: Calcium ion fluorescence (GCaMP6) assay, OR47a stable HEK293 cell line; type: cell-based; details: for OR47a response (VUAA1-normalized) at 1 μM / OR47a response (VUAA1-normalized) at 10 μM / OR47a response (VUAA1-normalized) at 100 μM / Average response: OR47a cell line; for OR47a response (VUAA1-normalized) at 1 μM: VOC concentration 1 μM; for OR47a response (VUAA1-normalized) at 10 μM: VOC concentration 10 μM; for OR47a response (VUAA1-normalized) at 100 μM: VOC concentration 100 μM; for Average response: mean of biological replicates
T1 construct: expressed in transfected cells
T1 sequence (P81921 1-385): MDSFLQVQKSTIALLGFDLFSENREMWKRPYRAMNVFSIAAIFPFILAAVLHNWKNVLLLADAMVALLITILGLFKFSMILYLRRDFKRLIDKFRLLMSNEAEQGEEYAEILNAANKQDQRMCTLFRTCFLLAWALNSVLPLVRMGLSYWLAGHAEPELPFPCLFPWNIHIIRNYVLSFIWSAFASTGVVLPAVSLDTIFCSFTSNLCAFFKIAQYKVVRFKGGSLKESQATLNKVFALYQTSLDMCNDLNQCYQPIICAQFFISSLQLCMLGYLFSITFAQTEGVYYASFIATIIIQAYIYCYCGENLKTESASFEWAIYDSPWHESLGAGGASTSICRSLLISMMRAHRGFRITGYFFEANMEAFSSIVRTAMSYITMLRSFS
T1 sequence (Q9VNB5 1-486 partner): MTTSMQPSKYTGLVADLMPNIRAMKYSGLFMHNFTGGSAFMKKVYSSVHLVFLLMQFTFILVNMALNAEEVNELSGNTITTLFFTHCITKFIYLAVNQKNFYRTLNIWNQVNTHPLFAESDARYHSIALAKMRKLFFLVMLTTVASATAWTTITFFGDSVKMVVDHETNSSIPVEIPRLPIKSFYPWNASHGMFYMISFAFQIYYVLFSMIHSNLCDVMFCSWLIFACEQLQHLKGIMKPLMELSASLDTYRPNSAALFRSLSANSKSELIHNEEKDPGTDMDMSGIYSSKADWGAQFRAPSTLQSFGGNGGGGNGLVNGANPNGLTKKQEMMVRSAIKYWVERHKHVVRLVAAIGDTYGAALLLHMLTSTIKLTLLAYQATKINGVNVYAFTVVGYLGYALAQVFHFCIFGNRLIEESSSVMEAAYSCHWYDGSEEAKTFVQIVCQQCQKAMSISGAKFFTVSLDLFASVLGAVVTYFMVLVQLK
Summary of the method: (§1)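 Responses are VUAA1-normalized ΔF: each VOC-evoked calcium signal, (FMAX−F0)/F0 over 30 s after injection, divided by the same line's mean 50 µM VUAA1 response. Cells were doxycycline-induced HEK293 with GCaMP6 and the cognate Drosophila OR, in HEPES buffer pH 7.3; ligands tested 0.01–100 μM.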

Drosophila OR10a = target: T2, Drosophila OR10a (Drosophila melanogaster, UniProt Q9VYZ1); assay: Calcium ion fluorescence (GCaMP6) assay, OR10a stable HEK293 cell line; type: cell-based; details: for activation at 1 µM: HEK293, 1 μM VOC; for activation at 1 µM / activation at 10 µM / activation at 100 µM: 50 μM VUAA1 = 1, responses not exceeding 0.05 considered 0, read-out: OR10a Average response (VUAA1-normalized); for activation at 10 µM: HEK293, 10 μM VOC; for activation at 100 µM: HEK293, 100 μM VOC; for OR10a response (VUAA1-normalized) at 1 μM / OR10a response (VUAA1-normalized) at 10 μM / OR10a response (VUAA1-normalized) at 100 μM: OR10a cell line; for OR10a response (VUAA1-normalized) at 1 μM: VOC concentration 1 μM; for OR10a response (VUAA1-normalized) at 10 μM: VOC concentration 10 μM; for OR10a response (VUAA1-normalized) at 100 μM: VOC concentration 100 μM
T2 construct: expressed in transfected cells
T2 sequence (Q9VYZ1 1-406): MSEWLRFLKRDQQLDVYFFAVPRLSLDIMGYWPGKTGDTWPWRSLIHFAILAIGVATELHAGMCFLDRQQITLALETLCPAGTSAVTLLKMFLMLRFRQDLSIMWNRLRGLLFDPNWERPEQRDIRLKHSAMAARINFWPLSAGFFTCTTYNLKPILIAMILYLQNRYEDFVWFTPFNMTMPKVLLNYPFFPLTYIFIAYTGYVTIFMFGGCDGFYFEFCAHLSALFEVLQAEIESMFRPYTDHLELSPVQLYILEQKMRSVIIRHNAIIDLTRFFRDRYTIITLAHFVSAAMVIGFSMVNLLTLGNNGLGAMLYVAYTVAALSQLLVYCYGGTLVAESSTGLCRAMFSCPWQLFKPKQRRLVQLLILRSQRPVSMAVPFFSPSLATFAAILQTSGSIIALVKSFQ
T2 sequence (Q9VNB5 1-486 partner): T1 sequence (Q9VNB5 1-486 partner)
Summary of the method: as §1

[1] = HEK293, read-out: OR47a Average response (VUAA1-normalized)
[2] = ligand concentration 1 (unit not given), threshold 0.05, below shown as 0
[3] = ligand concentration 10 (unit not given), threshold 0.05, below shown as 0
[4] = ligand concentration 100 (unit not given), threshold 0.05, below shown as 0
[5] = ligand concentration 10 (unit not given), 0.05 threshold, values below shown as 0

COC(=O)c1ccccc1O [methyl salicylate]
activation at 1 µM (Drosophila OR47a; [1]): 11% | activation at 10 µM (Drosophila OR47a; [1]): 1% | activation at 100 µM (Drosophila OR47a; [1]): 14% | OR47a response (VUAA1-normalized) at 1 μM (Drosophila OR47a): 0.11 | OR47a response (VUAA1-normalized) at 10 μM (Drosophila OR47a): 0.00 | OR47a response (VUAA1-normalized) at 100 μM (Drosophila OR47a): 0.14 | Average response (Drosophila OR47a; odorant cc. 1 µM): 0.11 | Average response (Drosophila OR47a; odorant cc. 10 µM): 0.00759 | Average response (Drosophila OR47a; odorant cc. 100 µM): 0.14 | DF norm AVERAGE OR47a (Drosophila OR47a; [2]): 0.1126 | DF norm AVERAGE OR47a (Drosophila OR47a; [3]): 0 | DF norm AVERAGE OR47a (Drosophila OR47a; [4]): 0.1364 | EC50 (Drosophila OR10a; AVERAGE EC50, from the average LOG EC50 of 5 biological replicates, unit inferred): 75.5 nM | EC50 (Drosophila OR10a; EC50, FITTED AVERAGE CURVE, fit of the averaged dose-response curve, unit inferred): 68.6 nM | EC50 (Drosophila OR10a; EC50, OR10a cell line, fitted Hill equation, Hill coefficient constrained to 1, maximal response max 1): 80 nM | EC50 (Drosophila OR10a; EC50 AVERAGE (arithmetic average of fitted EC50), average of 5 biological replicates, unit inferred): 90.1 nM | activation at 1 µM (Drosophila OR10a): 49% | activation at 10 µM (Drosophila OR10a): 55% | activation at 100 µM (Drosophila OR10a): 95% | Emax (Drosophila OR10a; HEK293, read-out: VUAA1 normalized MAX response): 44% | n, FITTED AVERAGE CURVE (Drosophila OR10a; Hill coefficient of the fit of the averaged curve): 0.855 | OR10a response (VUAA1-normalized) at 1 μM (Drosophila OR10a): 0.49 | OR10a response (VUAA1-normalized) at 10 μM (Drosophila OR10a): 0.55 | OR10a response (VUAA1-normalized) at 100 μM (Drosophila OR10a): 0.95 | AVERAGE MAX (Drosophila OR10a; average of 5 biological replicates): 0.4437 | response, AVERAGE (Drosophila OR10a; concentration 0.008, average of biological replicates): 0.06886 | response, AVERAGE (Drosophila OR10a; concentration 0.016, average of biological replicates): 0.1014 | response, AVERAGE (Drosophila OR10a; concentration 0.032, N 1): 0.1576 | response, AVERAGE (Drosophila OR10a; concentration 0.075, average of biological replicates): 0.2051 | response, AVERAGE (Drosophila OR10a; concentration 0.15, average of biological replicates): 0.2778 | response, AVERAGE (Drosophila OR10a; concentration 0.3, average of biological replicates): 0.4027 | response, AVERAGE (Drosophila OR10a; concentration 0.6, average of biological replicates): 0.307 | response, AVERAGE (Drosophila OR10a; concentration 1.25, average of biological replicates): 0.417 | response, AVERAGE (Drosophila OR10a; concentration 2.5, average of biological replicates): 0.471 | response, AVERAGE (Drosophila OR10a; concentration 5, average of biological replicates): 0.4362 | response, AVERAGE (Drosophila OR10a; concentration 10, average of biological replicates): 0.4759 | response, AVERAGE (Drosophila OR10a; concentration 20, average of biological replicates): 0.4313 | response, AVERAGE (Drosophila OR10a; concentration 40, average of biological replicates): 0.3644 | MAX, fitted average curve (Drosophila OR10a; fit of the averaged dose-response curve): 0.4394 | MAX (fitted parameter) (Drosophila OR10a; individual biological replicates, normalized response): 0.4829 and 0.2572 and 0.5237 and 0.5964 and 0.3582 | DF norm AVERAGE OR10a (Drosophila OR10a; [2]): 0.4904 | DF norm AVERAGE OR10a (Drosophila OR10a; [3]): 0.5549 | DF norm AVERAGE OR10a (Drosophila OR10a; [4]): 0.9525

CCCCCCCCC=O [nonanal]
OR47a response (VUAA1-normalized) at 1 μM (Drosophila OR47a): 0.00 | OR47a response (VUAA1-normalized) at 10 μM (Drosophila OR47a): 0.00 | OR47a response (VUAA1-normalized) at 100 μM (Drosophila OR47a): 0.00 | Average response (Drosophila OR47a; odorant cc. 1 µM): 0.00 | Average response (Drosophila OR47a; odorant cc. 10 µM): 0.00 | Average response (Drosophila OR47a; odorant cc. 100 µM): 0.00 | DF norm AVERAGE OR47a (Drosophila OR47a; [2]): 0 | DF norm AVERAGE OR47a (Drosophila OR47a; [3]): 0 | DF norm AVERAGE OR47a (Drosophila OR47a; [4]): 0 | activation at 1 µM (Drosophila OR10a): 0% | activation at 10 µM (Drosophila OR10a): 3% | activation at 100 µM (Drosophila OR10a): 0% | OR10a response (VUAA1-normalized) at 1 μM (Drosophila OR10a): 0.00 | OR10a response (VUAA1-normalized) at 10 μM (Drosophila OR10a): 0.00 | OR10a response (VUAA1-normalized) at 100 μM (Drosophila OR10a): 0.00 | DF norm AVERAGE OR10a (Drosophila OR10a; [2]): 0 | DF norm AVERAGE OR10a (Drosophila OR10a; [3]): 0 | DF norm AVERAGE OR10a (Drosophila OR10a; [4]): 0

CCCCCCCCCCCCCC [tetradecane]
OR47a response (VUAA1-normalized) at 1 μM (Drosophila OR47a): 0.00 | OR47a response (VUAA1-normalized) at 10 μM (Drosophila OR47a): 0.00 | OR47a response (VUAA1-normalized) at 100 μM (Drosophila OR47a): 0.00 | Average response (Drosophila OR47a; odorant cc. 1 µM): 0.02 | Average response (Drosophila OR47a; odorant cc. 10 µM): 0.03 | Average response (Drosophila OR47a; odorant cc. 100 µM): 0.00 | DF norm AVERAGE OR47a (Drosophila OR47a; ligand concentration 1 (unit not given), 0.05 threshold, values below shown as 0): 0 | DF norm AVERAGE OR47a (Drosophila OR47a; [5]): 0 | DF norm AVERAGE OR47a (Drosophila OR47a; ligand concentration 100 (unit not given), 0.05 threshold, values below shown as 0): 0 | activation at 1 µM (Drosophila OR10a): 11% | activation at 10 µM (Drosophila OR10a): 4.22% | activation at 100 µM (Drosophila OR10a): 8% | OR10a response (VUAA1-normalized) at 1 μM (Drosophila OR10a): 0.11 | OR10a response (VUAA1-normalized) at 10 μM (Drosophila OR10a): 0.00 | OR10a response (VUAA1-normalized) at 100 μM (Drosophila OR10a): 0.08 | DF norm AVERAGE OR10a (Drosophila OR10a; ligand concentration 1 (unit not given), […]): 0.1095 | DF norm AVERAGE OR10a (Drosophila OR10a; [5]): 0 | DF norm AVERAGE OR10a (Drosophila OR10a; ligand concentration 100 (unit not given), […]): 0.08392
